{"source": "patent US7728129B2", "about": "“Processes for the preparation of piperazinyl and diazapanyl benzamide derivatives” (Janssen Pharmaceutica NV, priority 2005, dated 2010)", "assay": "Hygroscopicity / humidity stability of salts by Dynamic Vapour Sorption (DVS)", "assay_type": "physicochemical", "details": "solid salt", "note": "Where a name gives a salt, the structure may show the parent alone.", "data": [{"smiles": "CC(C)N1CCN(C(=O)c2ccc(CN3CCOCC3)cc2)CC1.O=C(O)/C=C/C(=O)O", "note": "[(4-Isopropyl-piperazin-1-yl)-(4-morpholin-4-ylmethyl-phenyl)-methanone Mono-fumarate Salt]", "values": [{"measurement": "relative humidity up to which the salt is stable, by DVS", "result": "up to 70%"}]}, {"smiles": "CC(C)N1CCN(C(=O)c2ccc(CN3CCOCC3)cc2)CC1", "note": "[(4-Isopropyl-piperazin-1-yl)-(4-morpholin-4-ylmethyl-phenyl)-methanone Mono-succinate Salt]", "values": [{"measurement": "hygroscopicity by DVS", "setting": "Mono-succinate Salt", "result": "non-hygroscopic"}]}, {"smiles": "CC(C)N1CCN(C(=O)c2ccc(CN3CCOCC3)cc2)CC1", "note": "[(4-Isopropyl-piperazin-1-yl)-(4-morpholin-4-ylmethyl-phenyl)-methanone, dihydrobromide semi-hydrate salt]", "values": [{"measurement": "relative humidity above which the salt is hygroscopic, by DVS", "result": "above 10 % RH"}]}, {"smiles": "CC(C)N1CCN(C(=O)c2ccc(CN3CCOCC3)cc2)CC1.O=C(O)/C=C\\C(=O)O", "note": "[(4-Isopropyl-piperazin-1-yl)-(4-morpholin-4-ylmethyl-phenyl)-methanone Bis-maleate Salt]", "values": [{"measurement": "hygroscopicity by DVS", "result": "hygroscopic"}]}, {"smiles": "CC(C)N1CCN(C(=O)c2ccc(CN3CCOCC3)cc2)CC1", "note": "[(4-Isopropyl-piperazin-1-yl)-(4-morpholin-4-ylmethyl-phenyl)-methanone, dihydrochloride monohydrate salt]", "values": [{"measurement": "hygroscopicity by DVS", "result": "hygroscopic"}]}]}
